ChEMBL document CHEMBL5291721, “A preclinical secondary pharmacology resource illuminates target-adverse drug reaction associations of marketed drugs” (Nat Commun, 2023)

Tests used:
[1] = biological target: Sodium-dependent dopamine transporter (Homo sapiens, UniProt Q01959)
[2] = biological target: Beta-1 adrenergic receptor (Homo sapiens, UniProt P08588); assay type: functional
[3] = biological target: T1, Amine oxidase [flavin-containing] A (Homo sapiens, UniProt P21397); assay type: functional
T1 sequence (P21397 whole entry): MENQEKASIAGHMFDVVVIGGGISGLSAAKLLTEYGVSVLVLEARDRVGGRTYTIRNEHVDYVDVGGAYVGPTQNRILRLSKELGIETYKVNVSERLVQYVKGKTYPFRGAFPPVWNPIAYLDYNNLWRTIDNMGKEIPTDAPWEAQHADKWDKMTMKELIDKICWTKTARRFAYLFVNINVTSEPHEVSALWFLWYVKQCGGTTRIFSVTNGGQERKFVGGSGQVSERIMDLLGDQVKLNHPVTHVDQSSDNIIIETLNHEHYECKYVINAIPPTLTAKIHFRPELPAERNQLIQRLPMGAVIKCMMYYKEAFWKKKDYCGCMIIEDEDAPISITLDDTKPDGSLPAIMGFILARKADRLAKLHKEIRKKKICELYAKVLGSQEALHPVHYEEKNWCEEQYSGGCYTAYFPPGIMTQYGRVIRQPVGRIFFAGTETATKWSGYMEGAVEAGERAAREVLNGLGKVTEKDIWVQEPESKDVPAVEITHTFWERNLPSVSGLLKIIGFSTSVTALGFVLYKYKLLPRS

Histamine H2 receptor = Histamine H2 receptor (Homo sapiens, UniProt P25021); assay type: functional, cell-based
Adenosine receptor A1 = biological target: T2, Adenosine receptor A1 (Homo sapiens, UniProt P30542)
T2 sequence (P30542 whole entry): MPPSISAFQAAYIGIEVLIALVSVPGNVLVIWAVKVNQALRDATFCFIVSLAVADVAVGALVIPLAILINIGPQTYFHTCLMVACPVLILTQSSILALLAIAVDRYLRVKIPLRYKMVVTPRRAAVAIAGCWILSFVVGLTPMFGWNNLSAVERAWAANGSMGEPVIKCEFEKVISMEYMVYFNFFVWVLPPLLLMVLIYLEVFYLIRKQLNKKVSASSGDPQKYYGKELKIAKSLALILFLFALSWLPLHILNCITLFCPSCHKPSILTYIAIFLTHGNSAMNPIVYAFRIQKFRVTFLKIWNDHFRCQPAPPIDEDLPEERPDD

[4] = biological target: Voltage-gated inwardly rectifying potassium channel KCNH2 (Homo sapiens, UniProt Q12809); assay type: functional
[5] = biological target: T3, Gamma-aminobutyric acid receptor subunit alpha-1 (Rattus norvegicus, UniProt P62813)
Histamine H3 receptor = Histamine H3 receptor (Homo sapiens, UniProt Q9Y5N1)
[6] = biological target: 3',5'-cyclic-AMP phosphodiesterase 4D (Homo sapiens, UniProt Q08499); assay type: functional
[7] = biological target: T4, 5-hydroxytryptamine receptor 3A (Homo sapiens, UniProt P46098); assay type: functional
T4 sequence (P46098 whole entry): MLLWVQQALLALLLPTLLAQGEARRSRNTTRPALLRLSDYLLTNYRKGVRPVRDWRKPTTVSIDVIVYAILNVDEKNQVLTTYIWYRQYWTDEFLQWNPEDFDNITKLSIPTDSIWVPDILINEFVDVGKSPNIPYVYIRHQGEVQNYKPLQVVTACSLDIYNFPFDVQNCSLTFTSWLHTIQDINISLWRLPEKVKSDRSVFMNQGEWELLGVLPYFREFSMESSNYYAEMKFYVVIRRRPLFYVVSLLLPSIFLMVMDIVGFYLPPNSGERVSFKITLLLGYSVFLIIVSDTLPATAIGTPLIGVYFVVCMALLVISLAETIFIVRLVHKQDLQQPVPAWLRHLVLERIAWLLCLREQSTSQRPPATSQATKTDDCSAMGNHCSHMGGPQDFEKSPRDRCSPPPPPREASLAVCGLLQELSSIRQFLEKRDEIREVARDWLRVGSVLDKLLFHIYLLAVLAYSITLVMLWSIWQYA

[8] = biological target: T3, Gamma-aminobutyric acid receptor subunit alpha-1; assay type: functional
Vasopressin V1a receptor = Vasopressin V1a receptor (Homo sapiens, UniProt P37288)
[9] = biological target: T5, Cholecystokinin receptor type A (Homo sapiens, UniProt P32238)
T5 sequence (P32238 whole entry): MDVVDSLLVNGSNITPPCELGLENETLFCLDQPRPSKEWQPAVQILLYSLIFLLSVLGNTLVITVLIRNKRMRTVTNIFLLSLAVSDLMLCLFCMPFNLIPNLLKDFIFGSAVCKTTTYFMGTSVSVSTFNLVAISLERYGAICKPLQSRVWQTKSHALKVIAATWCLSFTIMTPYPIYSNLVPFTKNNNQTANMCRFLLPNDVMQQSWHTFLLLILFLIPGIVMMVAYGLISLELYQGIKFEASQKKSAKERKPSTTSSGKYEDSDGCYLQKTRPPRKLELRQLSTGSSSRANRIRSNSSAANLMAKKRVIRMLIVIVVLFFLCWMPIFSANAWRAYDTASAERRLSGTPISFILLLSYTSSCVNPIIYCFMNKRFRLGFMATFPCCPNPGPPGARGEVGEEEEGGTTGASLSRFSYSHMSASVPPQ

[10] = biological target: Beta-2 adrenergic receptor (Homo sapiens, UniProt P07550)

Measured: AC50
Further: assay procedure not described here.

T3 sequence (P62813 whole entry): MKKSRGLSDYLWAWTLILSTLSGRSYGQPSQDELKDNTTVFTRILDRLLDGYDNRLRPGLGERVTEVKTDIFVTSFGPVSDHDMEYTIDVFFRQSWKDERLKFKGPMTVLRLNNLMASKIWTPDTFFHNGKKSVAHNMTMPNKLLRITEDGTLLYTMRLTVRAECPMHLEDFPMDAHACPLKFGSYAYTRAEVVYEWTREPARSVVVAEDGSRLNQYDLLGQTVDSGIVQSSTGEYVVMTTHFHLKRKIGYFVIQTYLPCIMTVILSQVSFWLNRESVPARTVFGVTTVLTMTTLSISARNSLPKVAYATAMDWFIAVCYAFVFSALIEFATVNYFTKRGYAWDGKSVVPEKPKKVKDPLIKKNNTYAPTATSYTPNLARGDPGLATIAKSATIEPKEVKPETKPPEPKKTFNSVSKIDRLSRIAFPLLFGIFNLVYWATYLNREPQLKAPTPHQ
Chain of Histamine H3 receptor (Q9Y5N1 whole entry): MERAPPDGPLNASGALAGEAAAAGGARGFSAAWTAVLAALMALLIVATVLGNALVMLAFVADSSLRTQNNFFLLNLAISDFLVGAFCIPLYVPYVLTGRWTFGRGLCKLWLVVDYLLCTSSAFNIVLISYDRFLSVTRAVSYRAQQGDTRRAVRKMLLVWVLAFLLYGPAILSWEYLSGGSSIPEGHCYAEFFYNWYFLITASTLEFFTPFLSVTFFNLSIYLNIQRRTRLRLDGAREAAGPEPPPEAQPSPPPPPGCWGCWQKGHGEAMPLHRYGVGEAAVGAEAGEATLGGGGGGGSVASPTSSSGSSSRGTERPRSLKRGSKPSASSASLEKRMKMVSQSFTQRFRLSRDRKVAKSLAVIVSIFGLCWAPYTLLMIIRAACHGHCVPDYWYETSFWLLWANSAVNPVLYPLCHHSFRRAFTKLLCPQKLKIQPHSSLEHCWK
Chain of Histamine H2 receptor (P25021 whole entry): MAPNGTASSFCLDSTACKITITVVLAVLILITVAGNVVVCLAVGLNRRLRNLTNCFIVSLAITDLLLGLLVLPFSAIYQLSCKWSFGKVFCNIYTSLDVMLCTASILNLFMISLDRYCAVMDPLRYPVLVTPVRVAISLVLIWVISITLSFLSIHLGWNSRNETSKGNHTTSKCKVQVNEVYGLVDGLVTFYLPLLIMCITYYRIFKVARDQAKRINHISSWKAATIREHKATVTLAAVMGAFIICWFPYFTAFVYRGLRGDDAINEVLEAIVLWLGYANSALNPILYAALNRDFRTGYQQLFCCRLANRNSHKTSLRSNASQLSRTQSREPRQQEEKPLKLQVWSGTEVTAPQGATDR
Chain of Beta-1 adrenergic receptor (P08588 whole entry): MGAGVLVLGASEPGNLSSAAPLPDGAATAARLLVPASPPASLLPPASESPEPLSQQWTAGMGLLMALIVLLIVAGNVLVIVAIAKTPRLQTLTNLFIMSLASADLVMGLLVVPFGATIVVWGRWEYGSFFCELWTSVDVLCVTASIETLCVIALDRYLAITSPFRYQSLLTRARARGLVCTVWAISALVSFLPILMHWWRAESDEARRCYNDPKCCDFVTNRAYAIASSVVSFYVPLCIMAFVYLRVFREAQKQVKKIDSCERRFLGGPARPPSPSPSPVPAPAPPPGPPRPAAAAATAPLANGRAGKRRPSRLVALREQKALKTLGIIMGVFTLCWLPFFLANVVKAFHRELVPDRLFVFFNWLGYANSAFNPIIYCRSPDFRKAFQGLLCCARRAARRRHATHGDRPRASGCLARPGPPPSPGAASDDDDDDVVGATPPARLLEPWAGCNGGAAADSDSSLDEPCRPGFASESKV
Chain of Voltage-gated inwardly rectifying potassium channel KCNH2 (Q12809 whole entry): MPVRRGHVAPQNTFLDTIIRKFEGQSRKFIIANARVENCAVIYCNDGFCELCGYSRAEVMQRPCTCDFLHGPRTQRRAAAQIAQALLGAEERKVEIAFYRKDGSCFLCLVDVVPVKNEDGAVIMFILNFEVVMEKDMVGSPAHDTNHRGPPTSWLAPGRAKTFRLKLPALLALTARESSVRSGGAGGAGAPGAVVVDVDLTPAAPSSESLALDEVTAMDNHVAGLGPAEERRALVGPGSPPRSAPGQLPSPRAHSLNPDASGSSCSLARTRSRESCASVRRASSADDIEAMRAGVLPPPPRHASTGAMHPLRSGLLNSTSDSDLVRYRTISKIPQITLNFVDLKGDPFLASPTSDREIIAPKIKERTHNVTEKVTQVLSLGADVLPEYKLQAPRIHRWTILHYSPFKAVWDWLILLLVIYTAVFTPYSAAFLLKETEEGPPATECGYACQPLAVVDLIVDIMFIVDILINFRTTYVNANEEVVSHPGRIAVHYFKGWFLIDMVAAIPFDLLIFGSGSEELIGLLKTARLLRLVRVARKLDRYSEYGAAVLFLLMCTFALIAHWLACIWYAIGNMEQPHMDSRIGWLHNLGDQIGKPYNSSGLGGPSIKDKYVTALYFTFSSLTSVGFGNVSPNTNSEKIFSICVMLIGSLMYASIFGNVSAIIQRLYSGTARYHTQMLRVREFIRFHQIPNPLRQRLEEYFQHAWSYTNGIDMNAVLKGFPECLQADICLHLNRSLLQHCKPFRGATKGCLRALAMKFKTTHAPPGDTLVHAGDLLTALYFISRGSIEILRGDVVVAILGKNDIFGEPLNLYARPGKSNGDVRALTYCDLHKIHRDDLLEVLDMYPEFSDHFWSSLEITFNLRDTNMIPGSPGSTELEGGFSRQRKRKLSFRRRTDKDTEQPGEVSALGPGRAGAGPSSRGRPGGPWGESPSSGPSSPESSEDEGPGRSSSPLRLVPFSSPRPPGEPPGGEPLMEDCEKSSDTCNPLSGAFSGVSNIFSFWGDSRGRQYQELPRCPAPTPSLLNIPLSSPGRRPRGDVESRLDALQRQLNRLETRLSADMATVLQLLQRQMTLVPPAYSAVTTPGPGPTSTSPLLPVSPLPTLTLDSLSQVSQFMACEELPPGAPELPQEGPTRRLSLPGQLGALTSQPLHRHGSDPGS
Chain of 3',5'-cyclic-AMP phosphodiesterase 4D (Q08499 whole entry): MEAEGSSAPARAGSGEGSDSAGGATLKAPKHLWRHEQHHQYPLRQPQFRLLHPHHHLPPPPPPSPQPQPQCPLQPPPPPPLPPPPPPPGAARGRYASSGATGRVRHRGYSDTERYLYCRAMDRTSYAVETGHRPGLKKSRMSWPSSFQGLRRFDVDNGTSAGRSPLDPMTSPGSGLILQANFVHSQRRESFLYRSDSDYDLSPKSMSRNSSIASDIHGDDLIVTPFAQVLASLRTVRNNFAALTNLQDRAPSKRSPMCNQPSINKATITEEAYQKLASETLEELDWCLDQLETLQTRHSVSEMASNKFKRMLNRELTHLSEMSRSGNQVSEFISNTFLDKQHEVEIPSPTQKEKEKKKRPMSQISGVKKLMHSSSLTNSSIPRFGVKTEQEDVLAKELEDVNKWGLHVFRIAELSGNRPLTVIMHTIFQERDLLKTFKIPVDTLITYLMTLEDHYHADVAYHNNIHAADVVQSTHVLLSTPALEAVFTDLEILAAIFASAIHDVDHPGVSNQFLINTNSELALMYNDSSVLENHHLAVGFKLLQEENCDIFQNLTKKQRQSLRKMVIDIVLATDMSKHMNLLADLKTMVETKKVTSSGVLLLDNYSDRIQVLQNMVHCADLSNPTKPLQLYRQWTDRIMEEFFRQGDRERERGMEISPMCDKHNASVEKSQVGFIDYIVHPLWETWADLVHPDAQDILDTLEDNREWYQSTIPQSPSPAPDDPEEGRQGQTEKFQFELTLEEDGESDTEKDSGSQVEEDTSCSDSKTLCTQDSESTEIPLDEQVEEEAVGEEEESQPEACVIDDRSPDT
Chain of Sodium-dependent dopamine transporter (Q01959 whole entry): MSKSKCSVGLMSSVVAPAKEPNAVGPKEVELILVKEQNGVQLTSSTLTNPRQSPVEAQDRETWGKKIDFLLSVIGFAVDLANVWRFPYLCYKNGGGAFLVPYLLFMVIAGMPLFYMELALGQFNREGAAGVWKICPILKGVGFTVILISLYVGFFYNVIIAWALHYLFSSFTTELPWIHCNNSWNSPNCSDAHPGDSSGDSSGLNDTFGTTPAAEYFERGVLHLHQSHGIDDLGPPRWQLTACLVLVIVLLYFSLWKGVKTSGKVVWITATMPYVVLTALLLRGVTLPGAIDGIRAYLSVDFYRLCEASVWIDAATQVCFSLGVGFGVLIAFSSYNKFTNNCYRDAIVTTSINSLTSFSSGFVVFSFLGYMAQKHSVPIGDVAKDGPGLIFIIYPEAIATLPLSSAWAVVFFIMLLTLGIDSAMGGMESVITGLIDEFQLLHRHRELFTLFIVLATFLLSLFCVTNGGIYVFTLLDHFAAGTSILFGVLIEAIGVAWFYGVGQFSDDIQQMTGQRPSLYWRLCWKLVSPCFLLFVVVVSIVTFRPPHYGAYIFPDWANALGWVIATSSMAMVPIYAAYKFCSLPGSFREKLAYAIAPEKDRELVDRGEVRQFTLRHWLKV
Chain of Beta-2 adrenergic receptor (P07550 whole entry): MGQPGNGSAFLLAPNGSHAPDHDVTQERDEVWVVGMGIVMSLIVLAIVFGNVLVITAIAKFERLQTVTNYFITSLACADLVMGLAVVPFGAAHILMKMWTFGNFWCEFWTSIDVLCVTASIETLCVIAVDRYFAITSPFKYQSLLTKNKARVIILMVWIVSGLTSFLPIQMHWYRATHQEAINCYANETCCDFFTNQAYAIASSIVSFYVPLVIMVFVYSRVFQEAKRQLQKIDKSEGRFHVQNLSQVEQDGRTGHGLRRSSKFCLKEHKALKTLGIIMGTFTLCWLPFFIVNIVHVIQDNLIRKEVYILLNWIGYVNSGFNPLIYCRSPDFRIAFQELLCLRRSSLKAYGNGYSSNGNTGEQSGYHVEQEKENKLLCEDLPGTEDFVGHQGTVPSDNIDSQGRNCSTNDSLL

Cn1c(=O)c2c(ncn2CCOC(=O)C(C)(C)Oc2ccc(Cl)cc2)n(C)c1=O [THEOFIBRATE]
> 30 µM: [1] | [2] | [3] | Histamine H2 receptor | Adenosine receptor A1 | [4] | [5] | Histamine H3 receptor | [6] | [7] | [8] | Vasopressin V1a receptor | [9] | [10]
